Columns and labels:
α2-adrenoceptor = test: Relaxation of clonidine-induced contraction of isolated rat thoracic aorta ring preparations (α2-receptor antagonistic and vasodilator effect); details: sample 10^-5 M; Wistar rat thoracic aorta rings contracted with clonidine (10^-7 M or 10^-6 M) in presence of L-NAME 10^-4 M; mean±standard error
Excerpt: (1) Preparation of Blood Vessel
Male Wistar rats were euthanized by cervical dislocation under ether anesthesia or without anesthesia and then exsanguinated by cutting the carotid arteries. Immediately thereafter, the thoracic aortae were isolated by thoracotomy. The isolated preparations were held in Krebs-Hepes solutions [mM: NaCl, 126.9; KCl, 5.9; CaCl2, 2.36; MgCl2, 1.18; Hepes, 10.03; glucose, 11.8 (pH=7.4)] gassed with O2 (100%). The connective tissues and adipose tissues were carefully removed under a stereoscopic microscope. Then, the aortic tissue was cut into ring preparations approximately 2 mm in length to use in the experiment. The vascular endothelium was not removed.
(2) Measurement of Muscle Contractile/Relaxant Response
The blood vessel preparations were held in an organ bath (UC-5TD, UFER™ Medical Instrument, Kyoto, Japan) containing 5 ml of Normal Tyrode's solution gassed with 95% O2-5% CO2. Two stainless hooks were used to suspend the preparations. Tension changes were recorded isometrically via tension transducers (T7-8-240, ORIENTEC Co., Ltd, Tokyo, Japan; and TB-611T, NIHON KOHDEN Corp., Tokyo, Japan) and amplifiers (AP-600G and AP-621G, NIHON KOHDEN Corp., Tokyo, Japan; and MSC-2, Labo Support Corporation, Osaka, Japan). Passive tension was set to the optimum tension of 2.0 g. The composition of the Normal Tyrode's solution was as follows: (mM): NaCl, 158.3; KCl, 4.0; CaCl2, 2.0; MgCl2, 1.05; NaH2PO4, 0.42; NaHCO3, 10.0; glucose, 5.6 (pH=7.4, 37±0.5° C.).
The preparations were then incubated for 60 to 90 minutes in Normal Tyrode's solution, which was replaced with 20-minute to 30-minute intervals. To start the experiment, the preparations were first allowed to contract with a high potassium solution (high-KCl, 80 mM KCl) [composition (mM): NaCl, 82.3; KCl, 80.0; CaCl2, 2.0; MgCl2, 1.05; NaH2PO4, 0.42; NaHCO3, 10.0; glucose, 5.6 (pH=7.4)] to confirm that the preparations normally contracted. Then, the preparations were washed with a Normal Tyrode's solution, and the experiment was started.
For the purpose of evaluating the potencies of indole derivatives tested, the artery preparations were stimulated with an α2-adrenoceptor agonist clonidine hydrochloride (Wako Pure Chemical Industries, Ltd., Osaka, Japan) (10^−7 M or 10^−6 M) in the presence of an NO synthase inhibitor N^G-nitro-L-arginine methyl ester (DOJNDO Laboratories, Kumamoto, Japan) (10^−4 M) to thereby induce continuous contraction. After developed tension reached a steady-sate level, samples (indole derivatives) (10^−5 M) were administered to the bath solution. After the relaxant effects of the samples reached the maximum levels, an α2-adrenoceptor antagonist yohimbine hydrochloride (Wako Pure Chemical Industries, Ltd., Osaka, Japan) (10^−5 M) was administered to the bath solution. Relaxant response to yohimbine hydrochloride (10^−5 M) and the height of contraction immediately before sample administration were defined as the maximum relaxation (=100%) and 0%, respectively, and the relaxant effect of the samples were expressed as percentages relative to the maximum relaxation to yohimbine hydrochloride (10^−5 M).
The indole derivatives (samples Nos. 1 to 23) were dissolved in 100% dimethyl sulfoxide at a concentration of 10^−2 M just before use and administered to a 5-mL organ bath for evaluation. All the other drugs were dissolved and diluted in distilled water.
The results were expressed as mean±standard error.

[1] = Clinical report: one test subject took sample No. 16 for 9 months and was followed up; type: in vivo, human
Method: A test subject was allowed to take the indole derivative (N-nonanoylindole-3-ethaneamine) of the sample No. 16 for 9 months, and followed up.
Test subject: healthy, 67 kg in body weight
Information before medication: non-smoking, approximately 180 ml of sake per week, well-balanced diets (meats, vegetables, and fishes) without fatty eating. The test subject has 100% white hair and goes to a barber shop once every five weeks. Their mustaches are sparse and remain in an unobtrusive growth state by shaving approximately once every two days. They are in the habit of jogging on Sunday. Muscle ache occurs about two days after the jogging and lasts for approximately 4 days. They feel insecure in erection (ED for approximately half a year).
Dosage and administration: two doses per day, administered at 1 mg around 12 p.m. and at 1 mg around 0 a.m.

[2] = after one month, 1 mg two doses per day

Row | Compound | Reaction (%): relaxant effect relative to the maximum relaxation to yohimbine hydrochloride (10^-5 M) (α2-adrenoceptor) [%] | also measured
1 | CCCCCCC(=O)NCCc1cn(O)c2ccccc12 [compound 15, 1-hydroxy-N-heptanoylindole-3-ethaneamine] | 66.2 ± 13.9 | 
2 | COc1ccc2c(c1)c(CCNC(C)=O)cn2C(C)=O [compound 2, N,1-diacetyl-5-methoxyindole-3-ethaneamine] | 18.5 ± 9.8 | 
3 | CCCCCCCCC(=O)NCCc1cn(O)c2ccccc12 [compound 17, 1-hydroxy-N-nonanoylindole-3-ethaneamine] | 79.0 ± 13 | 
4 | COc1ccc2[nH]cc(CCNC(C)=O)c2c1 [compound 1, N-acetyl-5-methoxyindole-3-ethaneamine, reference compound] | 6.7 ± 6.7 | 
5 | COc1ccc2[nH]c(Br)c(CCNC(C)=O)c2c1Br [compound 7, N-acetyl-2,4-dibromo-5-methoxyindole-3-ethaneamine] | 73.5 ± 15.3 | 
6 | COc1c(Br)cc2[nH]c(Br)c(CCNC(C)=O)c2c1Br [compound 8, N-acetyl-2,4,6-tribromo-5-methoxyindole-3-ethaneamine] | 85.6 ± 12.0 | 
7 | N-adamantyl-4-(1-hydroxyindole-3-yl)butaneamide [compound 21] | 87.7 ± 8.53 | 
8 | O=C(NCCc1cn(O)c2ccccc12)C1CC1 [compound 11, 1-hydroxy-N-cyclopropylcarbonylindole-3-ethaneamine] | 15.7 ± 6.8 | 
9 | N-adamantyl-2-(1-hydroxyindole-3-yl)acetamide [compound 22] | 100.0 ± 0.00 | 
10 | COc1ccc2[nH]cc(CCN(C(C)=O)C(C)=O)c2c1 [compound 3, N,N-diacetyl-5-methoxyindole-3-ethaneamine] | 25.6 ± 7.5 | 
11 | O=C(CCCc1c[nH]c2ccccc12)NC12CC3CC(CC(C3)C1)C2 [compound 23, N-adamantyl-4-(indole-3-yl)butaneamide] | 91.5 ± 1.32 | 
12 | O=C(NCCc1c[nH]c2ccccc12)C1CC1 [compound 10, N-cyclopropylcarbonylindole-3-ethaneamine] | 21.4 | 
13 | COc1ccc2[nH]c(Br)c(CCNC(C)=O)c2c1 [compound 5, N-acetyl-2-bromo-5-methoxyindole-3-ethaneamine] | 43.1 ± 16.0 | 
14 | CCCCCCC(=O)NCCc1c[nH]c2ccccc12 [compound 14, N-heptanoylindole-3-ethaneamine] | 70.0 ± 6.9 | 
15 | CCCCC(=O)NCCc1cn(O)c2ccccc12 [compound 13, 1-hydroxy-N-pentanoylindole-3-ethaneamine] | 25.6 ± 6.0 | 
16 | CCCCCCCCC(=O)NCCc1c[nH]c2ccccc12 [compound 16, N-nonanoylindole-3-ethaneamine] | 80.7 ± 2.5 | erection ([1]; after nine months): became equal to that in their newly-married days; hair regrowth ([1]; after nine months): approximately half the hairs in the whole head except for the left frontal part of the temporal region were black hairs; muscle ache after jogging ([1]; after nine months): rapidly disappeared in one day; skin tone and complexion ([1]; after nine months): improved; erection ([1]; after one month): considerably improved; memory ([1]; after one month): memory was improved; muscle ache after jogging ([1]; after one month): slight; growth of the black hairs [1, 2]: approximately 0.5 mm per day; hair regrowth [1, 2]: black hairs were observed to grow in the scalp of the frontal part of the parietal region that had no hair; erection ([1]; after three months): improved; hair regrowth ([1]; after three months): Many black hairs were observed to grow throughout the head except for the left frontal part of the temporal region; memory ([1]; after three months): memory and retentive powers were recovered; time until muscle ache after jogging disappeared ([1]; after three months): 2 days; duration of dilation of cutaneous and penile blood vessels ([1]; person, 1 mg two doses per day): approximately 10 hours
17 | N-adamantyl-2-(indole-3-yl)acetamide [compound 20] | 64.2 ± 8.70 | 
18 | COc1c(Br)cc2c(c1Br)c(CCNC(C)=O)c(Br)n2C(C)=O [compound 9, N,1-diacetyl-2,4,6-tribromo-5-methoxyindole-3-ethaneamine] | 97.6 ± 2.4 | 
19 | COc1ccc2[nH]cc(CCNC(C)=O)c2c1Br [compound 4, N-acetyl-4-bromo-5-methoxyindole-3-ethaneamine] | 20.3 ± 4.6 | 
20 | COc1cc2c(CCNC(C)=O)c(Br)[nH]c2cc1Br [compound 6, N-acetyl-2,6-dibromo-5-methoxyindole-3-ethaneamine] | 64.0 ± 4.1 | 
21 | O=C(CCCc1c[nH]c2ccccc12)NC12CC3CC(CC(C3)C1)C2 [compound 18, N-adamantyl-4-(indole-3-yl)butaneamide] | 58.6 ± 10.6 | 
22 | CCCCC(=O)NCCc1c[nH]c2ccccc12 [compound 12, N-pentanoylindole-3-ethaneamine] | 26.9 ± 11.4 | 
23 | N-adamantyl-3-(indole-3-yl)propaneamide [compound 19] | 60.6 ± 20.7 | 

Source: patent publication US7872040B2, “Receptor blocker and vasodilator comprising indole derivative as active ingredient” (priority 2004, dated 2011)
